Among the data in publication PMC6886665 (2019) are KD values, retold here.

In the experiment the test system is truncated vancomycin aptamer (four base pairs removed from the stem), E-AB sensor (DNA, aptamer) CGAGGGTACCGCAATAGTACTTATTGTTCGCCTATTGTGGGTCGG
The experiment is described as follows: electrochemical aptamer-based sensor, square-wave voltammetry. Particulars: undiluted flowing whole blood; surface-attached aptamer; apparent.

As for `CN[C@H](CC(C)C)C(=O)N[C@H]1C(=O)N[C@@H](CC(N)=O)C(=O)N[C@H]2C(=O)N[C@H]3C(=O)N[C@H](C(=O)N[C@H](C(=O)O)c4cc(O)cc(O)c4-c4cc3ccc4O)[C@H](O)c3ccc(c(Cl)c3)Oc3cc2cc(c3O[C@@H]2O[C@H](CO)[C@@H](O)[C@H](O)[C@H]2O[C@H]2C[C@](C)(N)[C@H](O)[C@H](C)O2)Oc2ccc(cc2Cl)[C@H]1O`, the KD stood at 45 µM.
